Assay results as given in ChEMBL document CHEMBL1201862, “PubChem BioAssay data set” (2004).
Each block holds one molecule with its values, some of them ahead of it. Activity calls are given as the source filed them.

Key:
[1] = target: Intestinal-type alkaline phosphatase (Mus musculus, UniProt P24822); test: PubChem AID 488785; type: functional
Troponin, cardiac muscle = Troponin, cardiac muscle (Homo sapiens, UniProt P19429+P45379+P63316); test: compounds desensitizing RTF to calcium – biochemical, fluorescence, cardiac regulated thin filaments, triplicate IC50, dose response (AID 504742); type: protein-complex assay
[2] = target: T1, 1-phosphatidylinositol 4,5-bisphosphate phosphodiesterase beta-3 (Homo sapiens, UniProt Q01970); test: Fluorescence-based biochemical high throughput dose response assay to identify inhibitors of phospholipase C isozymes (PLC-B3).
T1 sequence (Q01970 whole entry): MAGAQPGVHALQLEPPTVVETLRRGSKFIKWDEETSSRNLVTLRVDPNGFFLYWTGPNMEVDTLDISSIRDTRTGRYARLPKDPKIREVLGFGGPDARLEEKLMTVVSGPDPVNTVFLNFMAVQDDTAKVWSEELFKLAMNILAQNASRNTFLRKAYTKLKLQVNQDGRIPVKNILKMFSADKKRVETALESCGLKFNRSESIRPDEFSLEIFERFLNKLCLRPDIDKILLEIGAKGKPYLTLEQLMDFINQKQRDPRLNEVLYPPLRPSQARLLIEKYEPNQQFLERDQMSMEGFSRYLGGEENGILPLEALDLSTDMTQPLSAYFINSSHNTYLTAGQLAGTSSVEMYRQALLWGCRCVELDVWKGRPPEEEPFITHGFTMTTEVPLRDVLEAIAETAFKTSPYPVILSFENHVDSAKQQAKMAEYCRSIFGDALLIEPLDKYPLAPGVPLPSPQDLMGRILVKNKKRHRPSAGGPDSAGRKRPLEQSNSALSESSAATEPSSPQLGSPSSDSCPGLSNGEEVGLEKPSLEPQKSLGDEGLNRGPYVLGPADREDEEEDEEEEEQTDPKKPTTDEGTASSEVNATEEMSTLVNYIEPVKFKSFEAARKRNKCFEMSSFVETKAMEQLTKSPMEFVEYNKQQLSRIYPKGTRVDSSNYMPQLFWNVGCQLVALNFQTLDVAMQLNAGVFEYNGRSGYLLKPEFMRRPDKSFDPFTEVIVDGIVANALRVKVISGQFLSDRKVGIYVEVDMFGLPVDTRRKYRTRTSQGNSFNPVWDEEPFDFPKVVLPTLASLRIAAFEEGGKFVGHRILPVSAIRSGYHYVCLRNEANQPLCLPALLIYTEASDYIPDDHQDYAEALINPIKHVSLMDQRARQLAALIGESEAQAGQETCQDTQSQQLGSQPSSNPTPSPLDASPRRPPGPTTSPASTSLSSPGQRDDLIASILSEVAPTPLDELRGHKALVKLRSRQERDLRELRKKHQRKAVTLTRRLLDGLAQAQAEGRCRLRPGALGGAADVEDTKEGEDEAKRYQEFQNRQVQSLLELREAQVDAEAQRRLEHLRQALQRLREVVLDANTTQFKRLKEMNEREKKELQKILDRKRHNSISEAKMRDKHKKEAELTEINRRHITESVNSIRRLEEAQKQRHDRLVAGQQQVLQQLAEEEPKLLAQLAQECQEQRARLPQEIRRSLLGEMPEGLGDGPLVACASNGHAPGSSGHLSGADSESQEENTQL

[3] = target: Serine/threonine-protein kinase Chk1 (Homo sapiens, UniProt O14757); type: functional;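 also: measured as one member of a kinome-wide kinase profiling panel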
Chain of Serine/threonine-protein kinase Chk1 (O14757 whole entry): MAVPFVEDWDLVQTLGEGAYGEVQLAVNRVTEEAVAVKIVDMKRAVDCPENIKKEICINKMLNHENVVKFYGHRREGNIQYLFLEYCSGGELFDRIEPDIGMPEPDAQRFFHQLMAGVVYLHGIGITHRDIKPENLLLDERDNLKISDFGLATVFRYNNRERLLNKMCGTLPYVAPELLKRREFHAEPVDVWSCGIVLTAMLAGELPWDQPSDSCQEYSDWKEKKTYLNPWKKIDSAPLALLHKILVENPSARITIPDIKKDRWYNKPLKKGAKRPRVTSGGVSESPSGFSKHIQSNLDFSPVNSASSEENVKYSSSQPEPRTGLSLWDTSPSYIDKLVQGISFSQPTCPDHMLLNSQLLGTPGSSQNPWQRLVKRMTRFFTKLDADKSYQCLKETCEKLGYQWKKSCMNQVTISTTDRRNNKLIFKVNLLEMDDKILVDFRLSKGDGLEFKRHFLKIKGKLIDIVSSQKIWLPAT

Focal adhesion kinase 1 = Focal adhesion kinase 1 (Homo sapiens, UniProt Q05397); type: functional;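 also: measured as one member of a kinome panel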
Chain of Focal adhesion kinase 1 (Q05397 whole entry): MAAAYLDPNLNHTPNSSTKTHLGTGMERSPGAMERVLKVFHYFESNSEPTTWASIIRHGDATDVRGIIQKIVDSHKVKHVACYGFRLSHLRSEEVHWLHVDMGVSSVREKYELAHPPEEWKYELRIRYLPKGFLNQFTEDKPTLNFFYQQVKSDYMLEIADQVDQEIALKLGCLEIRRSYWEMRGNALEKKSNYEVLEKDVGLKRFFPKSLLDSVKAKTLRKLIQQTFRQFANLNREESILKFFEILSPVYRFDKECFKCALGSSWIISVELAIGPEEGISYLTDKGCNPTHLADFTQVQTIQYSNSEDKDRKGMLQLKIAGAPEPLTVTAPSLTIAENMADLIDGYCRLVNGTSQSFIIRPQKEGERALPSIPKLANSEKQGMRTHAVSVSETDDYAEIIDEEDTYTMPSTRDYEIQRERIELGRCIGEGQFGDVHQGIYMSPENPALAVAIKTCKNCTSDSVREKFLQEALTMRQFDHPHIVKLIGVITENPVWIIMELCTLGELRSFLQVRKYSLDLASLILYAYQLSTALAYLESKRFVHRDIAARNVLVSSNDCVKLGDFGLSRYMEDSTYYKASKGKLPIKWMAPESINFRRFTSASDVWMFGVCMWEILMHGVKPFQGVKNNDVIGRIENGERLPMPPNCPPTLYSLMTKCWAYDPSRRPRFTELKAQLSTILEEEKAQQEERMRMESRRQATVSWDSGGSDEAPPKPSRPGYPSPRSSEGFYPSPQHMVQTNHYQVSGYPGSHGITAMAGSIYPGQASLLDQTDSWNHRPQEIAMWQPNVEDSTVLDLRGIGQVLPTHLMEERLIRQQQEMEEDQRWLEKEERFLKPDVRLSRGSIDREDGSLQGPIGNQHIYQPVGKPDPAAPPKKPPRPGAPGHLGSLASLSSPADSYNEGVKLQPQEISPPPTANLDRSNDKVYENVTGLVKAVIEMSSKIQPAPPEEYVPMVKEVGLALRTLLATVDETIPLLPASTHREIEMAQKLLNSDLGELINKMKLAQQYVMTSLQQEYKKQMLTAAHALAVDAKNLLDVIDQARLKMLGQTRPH

[4] = target: Proto-oncogene tyrosine-protein kinase receptor Ret (Homo sapiens, UniProt P07949); type: functional;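 also: measured within a kinome-wide profiling panel, RET as the panel member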
Chain of Proto-oncogene tyrosine-protein kinase receptor Ret (P07949 whole entry): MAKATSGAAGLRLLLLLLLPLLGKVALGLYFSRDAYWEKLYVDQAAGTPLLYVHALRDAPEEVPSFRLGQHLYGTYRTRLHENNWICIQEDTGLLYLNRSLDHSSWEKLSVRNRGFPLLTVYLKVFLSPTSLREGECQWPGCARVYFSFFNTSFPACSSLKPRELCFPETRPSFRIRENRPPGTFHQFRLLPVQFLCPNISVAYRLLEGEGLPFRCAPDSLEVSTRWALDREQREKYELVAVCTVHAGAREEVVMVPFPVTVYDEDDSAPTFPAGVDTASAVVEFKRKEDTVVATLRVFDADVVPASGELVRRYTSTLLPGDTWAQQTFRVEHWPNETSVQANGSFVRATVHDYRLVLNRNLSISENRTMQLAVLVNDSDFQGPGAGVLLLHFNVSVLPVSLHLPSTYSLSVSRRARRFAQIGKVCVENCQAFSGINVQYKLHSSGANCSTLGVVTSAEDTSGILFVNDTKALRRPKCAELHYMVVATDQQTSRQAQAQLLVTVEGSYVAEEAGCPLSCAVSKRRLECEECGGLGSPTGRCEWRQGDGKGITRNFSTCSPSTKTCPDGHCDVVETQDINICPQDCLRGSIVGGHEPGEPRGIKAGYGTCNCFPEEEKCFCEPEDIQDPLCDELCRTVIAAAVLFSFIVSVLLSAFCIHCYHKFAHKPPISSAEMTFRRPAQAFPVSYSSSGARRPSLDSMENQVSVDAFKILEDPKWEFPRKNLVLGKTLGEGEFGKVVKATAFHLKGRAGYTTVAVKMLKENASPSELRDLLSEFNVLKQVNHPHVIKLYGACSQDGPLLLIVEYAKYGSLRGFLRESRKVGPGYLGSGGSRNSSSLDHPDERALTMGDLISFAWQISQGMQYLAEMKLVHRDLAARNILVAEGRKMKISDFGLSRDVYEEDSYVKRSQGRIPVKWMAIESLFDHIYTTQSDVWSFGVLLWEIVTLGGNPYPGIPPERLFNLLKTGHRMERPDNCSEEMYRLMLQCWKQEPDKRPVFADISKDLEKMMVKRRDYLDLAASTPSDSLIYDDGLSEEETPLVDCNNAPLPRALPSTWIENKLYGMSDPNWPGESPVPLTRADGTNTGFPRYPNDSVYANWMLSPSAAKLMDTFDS

[5] = NIH3T3 cell viability loss – ATP luminescence, mouse fibroblasts, counter-screen, dose response (AID 2010); type: functional, cell-based;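 also: cells exposed to compound for about 90 hours before reading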

Chain of Intestinal-type alkaline phosphatase (P24822 whole entry): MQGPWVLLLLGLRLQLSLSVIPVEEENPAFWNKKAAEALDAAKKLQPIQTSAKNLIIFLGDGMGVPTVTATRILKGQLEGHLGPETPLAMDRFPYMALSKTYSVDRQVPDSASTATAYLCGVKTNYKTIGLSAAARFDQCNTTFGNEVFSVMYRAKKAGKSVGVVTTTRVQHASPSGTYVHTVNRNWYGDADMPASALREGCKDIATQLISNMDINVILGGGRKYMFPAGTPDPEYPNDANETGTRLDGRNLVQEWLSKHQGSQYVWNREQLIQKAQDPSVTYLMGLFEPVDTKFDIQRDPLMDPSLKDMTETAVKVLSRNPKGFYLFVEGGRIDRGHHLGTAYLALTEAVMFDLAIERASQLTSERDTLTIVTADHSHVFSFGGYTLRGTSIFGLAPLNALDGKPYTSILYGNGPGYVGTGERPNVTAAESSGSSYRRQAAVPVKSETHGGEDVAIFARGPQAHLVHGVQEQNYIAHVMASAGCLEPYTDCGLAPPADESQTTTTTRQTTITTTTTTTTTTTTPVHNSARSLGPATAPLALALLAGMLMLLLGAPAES

- IC50 [1]: 30.4 µM (active)
- IC50 [2]: > 122 µM (inactive)
Structure (SMILES): O=C(O)CC(C(=O)O)N1C(=O)/C(=C/C=C/c2ccco2)SC1=S (configuration not stated)
- IC50 (Troponin, cardiac muscle): > 71.5 µM (inactive)

- Ki [3]: > 3.16 µM (inactive)
Structure (SMILES): Cc1ccc(-c2cc(-c3cc(Br)ccc3O)[nH]c(=O)c2C#N)s1

- Ki (Focal adhesion kinase 1): > 6.31 µM (inactive)
- Ki [4]: > 3.16 µM (inactive)
Structure (SMILES): O=C(Nc1cccc(C2Nc3ccc4ccccc4c3C3C=CCC32)c1)c1ccc(F)cc1 (configuration not stated)

Structure (SMILES): CCCC(=O)NC(c1cccs1)c1cc(Cl)c2cccnc2c1O (configuration not stated)
- EC50 [5]: 2.61 µM (active)
